{"source": "patent US20110152252A1", "about": "(priority 2007, published 2011)", "key": {"[1]": {"target": "mitochondrial peripheral benzodiazepine receptor, mPBR (Homo sapiens, UniProt P30536)", "sequence (P30536 whole entry)": "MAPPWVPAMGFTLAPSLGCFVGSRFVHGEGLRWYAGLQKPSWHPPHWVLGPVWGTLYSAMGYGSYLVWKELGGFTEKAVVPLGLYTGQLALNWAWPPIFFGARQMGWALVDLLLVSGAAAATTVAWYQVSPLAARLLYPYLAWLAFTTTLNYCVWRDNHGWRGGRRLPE", "conditions": "cited from earlier work"}, "[2]": {"test_system": "Gb3-expressing HT-29 cells", "assay": "cells", "assay_type": "cell-based"}, "[3]": {"test_system": "periampular tumors in APC^1638N mice", "conditions": "mouse, in vivo"}}, "note": "Where two headings read alike, the source gives them in different places.", "data": [{"molecule": "RO5-4864", "values": [{"measurement": "Ki", "setting": "[1]", "value": 23, "unit": "nM"}]}, {"molecule": "SN-38", "values": [{"measurement": "IC50", "setting": "[2]; read-out: IC50", "value": 30, "unit": "nM"}]}, {"molecule": "CCc1c2c(nc3ccc(OC(=O)N4CCC(N5CCCCC5)CC4)cc13)-c1cc3c(c(=O)n1C2)COC(=O)[C@]3(O)CC", "note": "[CPT11]", "values": [{"measurement": "inflammatory reaction in the periampular region (pathology)", "setting": "[3]", "value": "weak and very moderate inflammatory reaction"}, {"measurement": "tumor growth / development of periampular tumors", "setting": "[3]", "value": "periampular tumors developed"}, {"measurement": "tumor lesions detected (pathology)", "setting": "[3]", "value": "high-grade adenomas and carcinomas could be detected"}, {"measurement": "IC50", "setting": "[2]; Homo sapiens, HT-29", "value": 70000, "unit": "nM"}]}]}
